Measured values as given in paper PMC6328172, “5-HT2 receptor binding, functional activity and selectivity in N-benzyltryptamines” (PLoS ONE, 2019).
Where two headings read alike, the source gives them in different places.

Key:
human 5-HT2A receptor [1] = target: T1, human 5-HT2A receptor (Homo sapiens, UniProt P28223); test: Competition binding to the human 5-HT2A receptor ([3H]ketanserin, CHO-5-HT2A membranes); settings: for Selectivity 5-HT2A/2C (binding): from Ki values, Table 1; for Ki: human receptor, [3H]ketanserin displacement, no unit in the table, nM, read-out: 5-HT2A Ki (in parentheses) (converted); for inhibition at 10 µM: values marked *
T1 construct: expressed in transfected cells; host or cells: CHO (CHO-5-HT2A cell line)
T1 sequence (P28223 whole entry): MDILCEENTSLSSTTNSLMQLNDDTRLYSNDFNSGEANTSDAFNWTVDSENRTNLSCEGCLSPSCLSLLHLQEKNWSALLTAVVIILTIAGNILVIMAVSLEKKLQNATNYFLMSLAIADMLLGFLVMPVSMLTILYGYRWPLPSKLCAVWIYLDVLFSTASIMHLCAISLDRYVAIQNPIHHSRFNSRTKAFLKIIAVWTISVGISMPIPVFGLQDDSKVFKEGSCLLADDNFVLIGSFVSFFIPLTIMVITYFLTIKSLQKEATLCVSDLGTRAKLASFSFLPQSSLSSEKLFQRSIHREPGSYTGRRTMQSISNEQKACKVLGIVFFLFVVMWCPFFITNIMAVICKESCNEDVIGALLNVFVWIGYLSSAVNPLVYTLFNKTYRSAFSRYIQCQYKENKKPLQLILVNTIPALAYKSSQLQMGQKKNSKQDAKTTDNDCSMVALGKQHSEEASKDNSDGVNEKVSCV

human 5-HT2B receptor = human 5-HT2B receptor (Homo sapiens, UniProt P41595); test: Competition binding to the human 5-HT2B receptor ([3H]LSD, CHO-5-HT2B membranes)
human 5-HT2B receptor, sequence (P41595 whole entry): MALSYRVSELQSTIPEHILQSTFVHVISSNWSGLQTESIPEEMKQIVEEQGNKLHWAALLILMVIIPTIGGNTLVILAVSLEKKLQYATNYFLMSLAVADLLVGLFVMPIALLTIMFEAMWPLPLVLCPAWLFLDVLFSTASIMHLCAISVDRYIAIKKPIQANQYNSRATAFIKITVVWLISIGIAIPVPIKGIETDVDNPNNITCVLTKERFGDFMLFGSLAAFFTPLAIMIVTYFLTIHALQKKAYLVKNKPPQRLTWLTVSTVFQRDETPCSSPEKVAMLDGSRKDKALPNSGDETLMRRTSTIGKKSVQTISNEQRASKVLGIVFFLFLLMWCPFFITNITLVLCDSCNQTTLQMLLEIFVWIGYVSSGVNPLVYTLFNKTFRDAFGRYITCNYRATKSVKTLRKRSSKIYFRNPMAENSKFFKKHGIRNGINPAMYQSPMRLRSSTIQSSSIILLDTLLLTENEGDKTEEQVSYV

human 5-HT2C receptor [2] = target: T2, human 5-HT2C receptor (Homo sapiens, UniProt P28335); test: Competition binding to the human 5-HT2C receptor ([3H]mesulergine, HeLa-5-HT2C membranes); settings: for Selectivity 5-HT2C/2A (binding, in parentheses): from Ki values, Table 1; for Ki: human receptor, [3H]mesulergine displacement, no unit in the table, nM, read-out: 5-HT2C Ki (in parentheses) (converted); for inhibition at 10 µM: values marked *
T2 construct: expressed in transfected cells; host or cells: HeLa (HeLa-5-HT2C cell line)
T2 sequence (P28335 33-458): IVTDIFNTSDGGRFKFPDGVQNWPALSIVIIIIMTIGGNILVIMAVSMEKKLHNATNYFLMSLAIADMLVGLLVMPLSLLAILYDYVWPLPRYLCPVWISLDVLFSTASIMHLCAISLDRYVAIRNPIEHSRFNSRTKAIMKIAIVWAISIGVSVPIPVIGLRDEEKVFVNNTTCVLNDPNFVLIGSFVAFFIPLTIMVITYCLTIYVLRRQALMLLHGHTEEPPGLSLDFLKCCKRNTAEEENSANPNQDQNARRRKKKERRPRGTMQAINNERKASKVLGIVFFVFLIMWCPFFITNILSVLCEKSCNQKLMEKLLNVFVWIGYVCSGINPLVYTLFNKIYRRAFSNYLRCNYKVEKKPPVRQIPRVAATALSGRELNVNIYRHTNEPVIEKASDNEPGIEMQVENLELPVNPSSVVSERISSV

human 5-HT2C receptor [3] = target: T2, human 5-HT2C receptor; test: Ca2+ mobilization in HeLa h5-HT2C cells; format: cell-based; settings: for EC50: Ca2+ mobilization, no unit in the table, nM, read-out: 5-HT2C EC50 (in parentheses) (converted); for Emax: HeLa, read-out: 5-HT2C % Emax; for Selectivity 5-HT2C/2A (functional, in parentheses): from EC50 values, Table 2
human 5-HT2A receptor [4] = target: T1, human 5-HT2A receptor; test: Ca2+ mobilization in CHO h5-HT2A cells; format: cell-based; settings: for EC50: Ca2+ mobilization; for Selectivity 5-HT2A/2C (functional): from EC50 values, Table 2; for Emax: relative efficacy, % of response to 5-HT; for times less potent than its 5-methoxytryptamine analog, h5-HT2A functional assay: 3 vs 38, 5 vs 39
[5] = no unit in the table, nM, read-out: 5-HT2A EC50 (in parentheses) (converted)

Structure (SMILES)	Selectivity 5-HT2A/2C (binding) (human 5-HT2A receptor [1])	Ki (human 5-HT2A receptor [1])	Ki (human 5-HT2B receptor)	Selectivity 5-HT2C/2A (binding, in parentheses) (human 5-HT2C receptor [2])	Ki (human 5-HT2C receptor [2])	EC50 (human 5-HT2C receptor [3])	Emax (human 5-HT2C receptor [3])	Selectivity 5-HT2C/2A (functional, in parentheses) (human 5-HT2C receptor [3])	EC50 (human 5-HT2A receptor [4]; [5])	Selectivity 5-HT2A/2C (functional) (human 5-HT2A receptor [4])	Emax (human 5-HT2A receptor [4])	times less potent than its 5-methoxytryptamine analog, h5-HT2A functional assay (human 5-HT2A receptor [4])	EC50 (human 5-HT2A receptor [4]; pEC50 ± SEM, read-out: 5-HT2A pEC50 (converted))	inhibition at 10 µM (human 5-HT2A receptor [1])	inhibition at 10 µM (human 5-HT2C receptor [2])
c1ccc(CNCCc2c[nH]c3ccccc23)cc1 [Compound 1, N-Benzyl-[2-(1H-indol-3-yl)ethyl]amine]	0.75	245 nM	100 nM	1.33	186 nM	50.1 nM	121 ± 6.58%	3.24	162 nM	0.31	61.6 ± 5.17%	–	–	–	–
Oc1ccccc1CNCCc1c[nH]c2ccccc12 [Compound 2, N-(2-Hydroxybenzyl)-[2-(1H-indol-3-yl)ethyl]amine]	0.73	115 nM	67.6 nM	1.37	85.1 nM	33.9 nM	85.8 ± 2.83%	5.89	200 nM	0.17	94.1 ± 4.59%	–	–	–	–
COc1ccccc1CNCCc1c[nH]c2ccccc12 [Compound 3, N-(2-Methoxybenzyl)-[2-(1H-indol-3-yl)ethyl]amine]	2.56	89.1 nM	46.8 nM	0.39	224 nM	35.5 nM	94.2 ± 3.75%	43.7	1550 nM	0.023	63 ± 1.95%	several hundred times less potent	1550 nM	–	–
Cc1ccccc1CNCCc1c[nH]c2ccccc12 [Compound 4, N-(2-Methylbenzyl)-[2-(1H-indol-3-yl)ethyl]amine]	–	–	339 nM	–	661 nM	138 nM	107 ± 2.9%	14.5	2000 nM	0.069	44.4 ± 2.79%	–	–	48 ± 1%	–
Clc1ccccc1CNCCc1c[nH]c2ccccc12 [Compound 5, N-(2-Chlorobenzyl)-[2-(1H-indol-3-yl)ethyl]amine]	2.04	12 nM	23.4 nM	0.49	24.6 nM	195 nM	87.1 ± 4.96%	2.40	468 nM	0.42	25.5 ± 1.16%	~40 times	–	–	–
Brc1ccccc1CNCCc1c[nH]c2ccccc12 [Compound 6, N-(2-Bromobenzyl)-[2-(1H-indol-3-yl)ethyl]amine]	1.74	195 nM	74.1 nM	0.57	339 nM	234 nM	109 ± 5.2%	9.55	2240 nM	0.10	29.3 ± 5.93%	–	–	–	–
Oc1cccc(CNCCc2c[nH]c3ccccc23)c1 [Compound 7, N-(3-Hydroxybenzyl)-[2-(1H-indol-3-yl)ethyl]amine]	0.36	75.9 nM	37.1 nM	2.8	25.7 nM	6.76 nM	96.3 ± 4.02%	8.32	56.2 nM	0.12	52.8 ± 4.63%	–	–	–	–
Oc1ccc(CNCCc2c[nH]c3ccccc23)cc1 [Compound 12, N-(4-Hydroxybenzyl)-[2-(1H-indol-3-yl)ethyl]amine]	1.09	912 nM	490 nM	0.92	1000 nM	145 nM	99.7 ± 2.81%	–	–	–	–	–	–	–	–
COc1ccc(CNCCc2c[nH]c3ccccc23)cc1 [Compound 13, N-(4-Methoxybenzyl)-[2-(1H-indol-3-yl)ethyl]amine]	–	457 nM	–	–	355 nM	8.32 nM	91.4 ± 2.03%	–	45.7 nM	–	108 ± 2.78%	–	–	–	–
Cc1ccc(CNCCc2c[nH]c3ccccc23)cc1 [Compound 14, N-(4-Methylbenzyl)-[2-(1H-indol-3-yl)ethyl]amine]	0.81	417 nM	74.1 nM	1.23	331 nM	1200 nM	100 ± 5.36%	–	–	–	–	–	–	–	–
O=[N+]([O-])c1ccc(CNCCc2c[nH]c3ccccc23)cc1 [Compound 18, N-(4-Nitrobenzyl)-[2-(1H-indol-3-yl)ethyl]amine]	0.54	2630 nM	200 nM	1.85	1410 nM	525 nM	92 ± 8.69%	–	–	–	–	–	–	–	–
COc1cccc(CNCCc2c[nH]c3ccccc23)c1OC [Compound 20, N-(2,3-Dimethoxybenzyl)-[2-(1H-indol-3-yl)ethyl]amine]	0.73	1510 nM	195 nM	1.37	1120 nM	3630 nM	117 ± 9.18%	–	–	–	–	–	–	–	–
Oc1ccc(Br)cc1CNCCc1c[nH]c2ccccc12 [Compound 26, N-(5-Bromo-2-hydroxybenzyl)-[2-(1H-indol-3-yl)ethyl]amine]	2.39	309 nM	–	0.42	724 nM	708 nM	108 ± 2.88%	–	–	–	–	–	–	–	–
O=[N+]([O-])c1ccc(O)c(CNCCc2c[nH]c3ccccc23)c1 [Compound 30, N-(5-Nitro-2-hydroxybenzyl)-[2-(1H-indol-3-yl)ethyl]amine]	–	–	891 nM	–	–	–	–	–	–	–	–	–	–	8 ± 4%	31 ± 4%
COc1ccc(CNCCc2c[nH]c3ccccc23)c(OC)c1 [Compound 32, N-(2,4-Dimethoxybenzyl)-[2-(1H-indol-3-yl)ethyl]amine]	0.41	661 nM	234 nM	2.44	269 nM	240 nM	117 ± 4.59%	–	–	–	–	–	–	–	–
Oc1c(Br)cc(Br)cc1CNCCc1c[nH]c2ccccc12 [Compound 35, N-(3,5-Dibromo-2-hydroxybenzyl)-[2-(1H-indol-3-yl)ethyl]amine]	–	–	6030 nM	–	–	–	–	–	–	–	–	–	–	12 ± 4%	26 ± 4%
NCCc1c[nH]c2ccccc12 [Tryptamine]	–	–	110 nM	–	95.5 nM	1.17 nM	108 ± 3.43%	–	–	–	97.6 ± 2.34%	–	–	–	–
